Data published in patent US20240270762A1, “PENICILLIN-BINDING PROTEIN INHIBITORS” (priority 2021, published 2024).
In brackets after ≈: the same amount, converted by molar mass.

Tests used:
[1] = target: T1, PBP3 from Escherichia coli (K-12) (Escherichia coli, UniProt P0AD68); test: Bocillin-FL fluorescence polarization competition binding, E. coli PBP3
T1 construct: made in house
How it was run: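 Purified PBPs pre-incubated with inhibitor (E. coli PBP3 1.5 μM, 30 min; P. aeruginosa PBP3 0.75 μM, A. baumannii PBP1a 1 μM and PBP3 0.2 μM, 15 min), then Bocillin-FL 0.1 μM (0.05 μM for PBP1a) added; FP read up to 60 min. EC50 = concentration halving bound Bocillin-FL.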

P. aeruginosa ATCC 27853 = test: microbe, parasite or virus in culture; assay type: cell-based; conditions: Pseudomonas aeruginosa, ATCC27853, read-out: Minimum inhibitory concentration, P. aeruginosa ATCC 27853
[2] = tested on: P. aeruginosa (ΔmexAB-oprM); test: Broth microdilution MIC in iron-depleted CAMHB (IDM); assay type: cell-based; conditions: Pseudomonas aeruginosa; iron-depleted CAMHB (IDM); […]; read-out: Minimum inhibitory concentration, P. aeruginosa ΔmexAB-oprM
P. aeruginosa CDC-0054 = test: microbe, parasite or virus in culture; assay type: cell-based; conditions: Pseudomonas aeruginosa, CDC0054, read-out: Minimum inhibitory concentration, P. aeruginosa CDC-0054
P. aeruginosa CDC-0090 = test: microbe, parasite or virus in culture; assay type: cell-based; conditions: Pseudomonas aeruginosa, CDC0090, read-out: Minimum inhibitory concentration, P. aeruginosa CDC-0090
A. baumannii 1258916 = test: microbe, parasite or virus in culture; assay type: cell-based, Acinetobacter baumannii; conditions: Acinetobacter baumannii, 1258916, read-out: MIC, A. baumannii 1258916
A. baumannii CDC-0036 = test: microbe, parasite or virus in culture; assay type: cell-based; conditions: Acinetobacter baumannii, CDC0036, read-out: MIC, A. baumannii CDC-0036
A. baumannii CDC-0083 = test: microbe, parasite or virus in culture; assay type: cell-based; conditions: Acinetobacter baumannii, CDC0083, read-out: MIC, A. baumannii CDC-0083
[3] = tested on: B. thailandensis ATCC 700388; test: microbe, parasite or virus in culture; assay type: cell-based; conditions: Burkholderia thailandensis, ATCC700388, read-out: Minimum inhibitory concentration (MIC), B. thailandensis ATCC 700388
P. aeruginosa CDC-0110 = test: microbe, parasite or virus in culture; assay type: cell-based; conditions: Pseudomonas aeruginosa, CDC0110, read-out: Minimum inhibitory concentration, P. aeruginosa CDC-0110

T1 sequence (P0AD68 1-577): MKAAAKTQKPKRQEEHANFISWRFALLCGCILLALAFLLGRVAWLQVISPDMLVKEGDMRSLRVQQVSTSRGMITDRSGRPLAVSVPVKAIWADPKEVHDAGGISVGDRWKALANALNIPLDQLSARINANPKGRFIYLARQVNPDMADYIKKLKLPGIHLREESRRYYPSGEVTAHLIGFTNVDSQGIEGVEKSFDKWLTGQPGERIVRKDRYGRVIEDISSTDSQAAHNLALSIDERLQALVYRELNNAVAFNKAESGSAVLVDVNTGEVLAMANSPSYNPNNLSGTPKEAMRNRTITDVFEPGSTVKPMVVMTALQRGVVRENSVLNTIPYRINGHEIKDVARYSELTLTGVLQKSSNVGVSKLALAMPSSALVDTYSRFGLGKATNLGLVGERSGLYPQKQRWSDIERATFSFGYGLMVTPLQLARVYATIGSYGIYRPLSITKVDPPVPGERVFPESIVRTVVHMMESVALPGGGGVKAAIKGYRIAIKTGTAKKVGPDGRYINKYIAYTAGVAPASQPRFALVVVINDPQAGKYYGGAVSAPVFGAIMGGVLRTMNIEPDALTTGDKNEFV

Row | Structure (SMILES) | EC50 [1] [µM] | MIC (P. aeruginosa ATCC 27853) [µg/mL] | MIC [2] [µg/mL] | MIC (P. aeruginosa CDC-0054) [µg/mL] | MIC (P. aeruginosa CDC-0090) [µg/mL] | MIC (A. baumannii 1258916) [µg/mL] | MIC (A. baumannii CDC-0036) [µg/mL] | MIC (A. baumannii CDC-0083) [µg/mL] | MIC [3] [µg/mL] | MIC (P. aeruginosa CDC-0110) [µg/mL]
1 | O=C(NCCCN1CCN(C(=O)NC(C(=O)N[C@H]2Cc3ccc(F)c(C(=O)O)c3OB2O)c2cc(F)c(O)c(O)c2Cl)C(=O)C1=O)c1ccc(O)c(Cl)c1 (stereo partly drawn) [Example 305, (3R)-3-(2-(4-(3-(3-chloro-4-hydroxybenzamido)propyl)-2,3-dioxopiperazine-1-carboxamido)-2-(2-chloro-5-fluoro-3,4-dihydroxyphenyl)acetamido)-7-fluoro-2-hydroxy-3,4-dihydro-2H-benzo[e][1,2]oxaborinine-8-carboxylic acid] | < 10 | 2 to 4 (≈ 2.52 to 5.04 µM) | < 1 | 2 to 4 (≈ 2.52 to 5.04 µM) | < 1 | < 1 | 2 to 4 (≈ 2.52 to 5.04 µM) | 2 to 4 (≈ 2.52 to 5.04 µM) | 2 to 4 (≈ 2.52 to 5.04 µM) | < 1
2 | O=C(NCCCN1CCN(C(=O)NC(C(=O)N[C@H]2Cc3ccc(F)c(C(=O)O)c3OB2O)c2cc(F)c(O)c(O)c2Cl)C(=O)C1=O)c1ccc(O)c(F)c1F (stereo partly drawn) [Example 306, (3R)-3-(2-(2-chloro-5-fluoro-3,4-dihydroxyphenyl)-2-(4-(3-(2,3-difluoro-4-hydroxybenzamido)propyl)-2,3-dioxopiperazine-1-carboxamido)acetamido)-7-fluoro-2-hydroxy-3,4-dihydro-2H-benzo[e][1,2]oxaborinine-8-carboxylic acid] | < 10 | 2 to 4 (≈ 2.51 to 5.03 µM) | < 1 | 2 to 4 (≈ 2.51 to 5.03 µM) | < 1 | < 1 | 2 to 4 (≈ 2.51 to 5.03 µM) | 2 to 4 (≈ 2.51 to 5.03 µM) | 2 to 4 (≈ 2.51 to 5.03 µM) | < 1
3 | O=C(NCCCN1CCN(C(=O)NC(C(=O)N[C@H]2Cc3ccc(F)c(C(=O)O)c3OB2O)c2cc(F)c(O)c(O)c2Cl)C(=O)C1=O)c1ccc(O)cc1O (stereo partly drawn) [Example 307, (3R)-3-(2-(2-chloro-5-fluoro-3,4-dihydroxyphenyl)-2-(4-(3-(2,4-dihydroxybenzamido)propyl)-2,3-dioxopiperazine-1-carboxamido)acetamido)-7-fluoro-2-hydroxy-3,4-dihydro-2H-benzo[e][1,2]oxaborinine-8-carboxylic acid] | < 10 | 2 to 4 (≈ 2.58 to 5.16 µM) | < 1 | 2 to 4 (≈ 2.58 to 5.16 µM) | < 1 | < 1 | 2 to 4 (≈ 2.58 to 5.16 µM) | < 1 | 8 to 16 (≈ 10.3 to 20.6 µM) | < 1
4 | O=C(O)c1c(F)ccc2c1OB(O)[C@@H](NC(=O)C(NC(=O)N1CCN(C3CCN(C(=O)c4c(F)ccc(O)c4F)CC3)C(=O)C1=O)c1cc(F)c(O)c(O)c1Cl)C2 (stereo partly drawn) [Example 308, (3R)-3-(2-(2-chloro-5-fluoro-3,4-dihydroxyphenyl)-2-(4-(1-(2,6-difluoro-3-hydroxybenzoyl)piperidin-4-yl)-2,3-dioxopiperazine-1-carboxamido)acetamido)-7-fluoro-2-hydroxy-3,4-dihydro-2H-benzo[e][1,2]oxaborinine-8-carboxylic acid] | < 10 | < 1 | < 1 | < 1 | 2 to 4 (≈ 2.43 to 4.87 µM) | < 1 | 2 to 4 (≈ 2.43 to 4.87 µM) | < 1 | 2 to 4 (≈ 2.43 to 4.87 µM) | < 1
5 | O=C(O)c1c(F)ccc2c1OB(O)[C@@H](NC(=O)C(NC(=O)N1CCN(C3CCN(C(=O)c4cc(O)cc(O)c4)CC3)C(=O)C1=O)c1cc(F)c(O)c(O)c1Cl)C2 (stereo partly drawn) [Example 309, (3R)-3-(2-(2-chloro-5-fluoro-3,4-dihydroxyphenyl)-2-(4-(1-(3,5-dihydroxybenzoyl)piperidin-4-yl)-2,3-dioxopiperazine-1-carboxamido)acetamido)-7-fluoro-2-hydroxy-3,4-dihydro-2H-benzo[e][1,2]oxaborinine-8-carboxylic acid] | < 10 | 2 to 4 (≈ 2.49 to 4.99 µM) | < 1 | < 1 | 2 to 4 (≈ 2.49 to 4.99 µM) | < 1 | < 1 | < 1 | < 1 | < 1
6 | CN(CCCN1CCN(C(=O)NC(C(=O)N[C@H]2Cc3ccc(F)c(C(=O)O)c3OB2O)c2cc(F)c(O)c(O)c2Cl)C(=O)C1=O)C(=O)c1cccc(O)c1 (stereo partly drawn) [Example 310, (3R)-3-(2-(2-chloro-5-fluoro-3,4-dihydroxyphenyl)-2-(4-(3-(3-hydroxy-N-methylbenzamido)propyl)-2,3-dioxopiperazine-1-carboxamido)acetamido)-7-fluoro-2-hydroxy-3,4-dihydro-2H-benzo[e][1,2]oxaborinine-8-carboxylic acid] | < 10 | < 1 | < 1 | < 1 | 2 to 4 (≈ 2.58 to 5.17 µM) | < 1 | 2 to 4 (≈ 2.58 to 5.17 µM) | < 1 | 2 to 4 (≈ 2.58 to 5.17 µM) | < 1
7 | O=C(NCCCN1CCN(C(=O)NC(C(=O)N[C@H]2Cc3ccc(F)c(C(=O)O)c3OB2O)c2cc(F)c(O)c(O)c2Cl)C(=O)C1=O)c1ccncc1F (stereo partly drawn) [Example 400, (3R)-3-(2-(2-chloro-5-fluoro-3,4-dihydroxyphenyl)-2-(4-(3-(3-fluoroisonicotinamido)propyl)-2,3-dioxopiperazine-1-carboxamido)acetamido)-7-fluoro-2-hydroxy-3,4-dihydro-2H-benzo[e][1,2]oxaborinine-8-carboxylic acid] | < 10 | 2 to 4 (≈ 2.62 to 5.24 µM) | < 1 | < 1 | 2 to 4 (≈ 2.62 to 5.24 µM) | 2 to 4 (≈ 2.62 to 5.24 µM) | 2 to 4 (≈ 2.62 to 5.24 µM) | 2 to 4 (≈ 2.62 to 5.24 µM) | 2 to 4 (≈ 2.62 to 5.24 µM) | < 1
8 | O=C(NCCCN1CCN(C(=O)NC(C(=O)N[C@H]2Cc3ccc(F)c(C(=O)O)c3OB2O)c2cc(F)c(O)c(O)c2Cl)C(=O)C1=O)c1c(F)cncc1F (stereo partly drawn) [Example 402, (3R)-3-(2-(2-chloro-5-fluoro-3,4-dihydroxyphenyl)-2-(4-(3-(3,5-difluoroisonicotinamido)propyl)-2,3-dioxopiperazine-1-carboxamido)acetamido)-7-fluoro-2-hydroxy-3,4-dihydro-2H-benzo[e][1,2]oxaborinine-8-carboxylic acid] | < 10 | 2 to 4 (≈ 2.56 to 5.12 µM) | < 1 | < 1 | < 1 | 2 to 4 (≈ 2.56 to 5.12 µM) | 2 to 4 (≈ 2.56 to 5.12 µM) | 2 to 4 (≈ 2.56 to 5.12 µM) | 2 to 4 (≈ 2.56 to 5.12 µM) | < 1
9 | O=C(NCCCN1CCN(C(=O)NC(C(=O)N[C@H]2Cc3ccc(F)c(C(=O)O)c3OB2O)c2cc(F)c(O)c(O)c2Cl)C(=O)C1=O)c1c(F)cncc1Cl (stereo partly drawn) [Example 403, (3R)-3-(2-(2-chloro-5-fluoro-3,4-dihydroxyphenyl)-2-(4-(3-(3-chloro-5-fluoroisonicotinamido)propyl)-2,3-dioxopiperazine-1-carboxamido)acetamido)-7-fluoro-2-hydroxy-3,4-dihydro-2H-benzo[e][1,2]oxaborinine-8-carboxylic acid] | < 10 | 2 to 4 (≈ 2.51 to 5.02 µM) | < 1 | < 1 | 2 to 4 (≈ 2.51 to 5.02 µM) | 2 to 4 (≈ 2.51 to 5.02 µM) | 2 to 4 (≈ 2.51 to 5.02 µM) | 2 to 4 (≈ 2.51 to 5.02 µM) | 2 to 4 (≈ 2.51 to 5.02 µM) | < 1
10 | O=C(NCCCN1CCN(C(=O)NC(C(=O)N[C@H]2Cc3ccc(F)c(C(=O)O)c3OB2O)c2cc(F)c(O)c(O)c2Cl)C(=O)C1=O)c1cc(F)c(F)c(O)c1F (stereo partly drawn) [Example 404, (3R)-3-(2-(2-chloro-5-fluoro-3,4-dihydroxyphenyl)-2-(2,3-dioxo-4-(3-(2,4,5-trifluoro-3-hydroxybenzamido)propyl)piperazine-1-carboxamido)acetamido)-7-fluoro-2-hydroxy-3,4-dihydro-2H-benzo[e][1,2]oxaborinine-8-carboxylic acid] | < 10 | 2 to 4 (≈ 2.46 to 4.91 µM) | < 1 | < 1 | 2 to 4 (≈ 2.46 to 4.91 µM) | 2 to 4 (≈ 2.46 to 4.91 µM) | 2 to 4 (≈ 2.46 to 4.91 µM) | > 128 | 2 to 4 (≈ 2.46 to 4.91 µM) | < 1
11 | O=C(NCCCN1CCN(C(=O)NC(C(=O)N[C@H]2Cc3ccc(F)c(C(=O)O)c3OB2O)c2cc(F)c(O)c(O)c2Cl)C(=O)C1=O)c1cccc(O)c1F (stereo partly drawn) [Example 406, (3R)-3-(2-(2-chloro-5-fluoro-3,4-dihydroxyphenyl)-2-(4.-(3-(2-fluoro-3-hydroxybenzamido)propyl)-2,3-dioxopiperazine-1-carboxamido)acetamido)-7-fluoro-2-hydroxy-3,4-dihydro-2H-benzo[e][1,2]oxaborinine-8-carboxylic acid] | < 10 | < 1 | < 1 | < 1 | < 1 | 2 to 4 (≈ 2.57 to 5.14 µM) | 2 to 4 (≈ 2.57 to 5.14 µM) | < 1 | 2 to 4 (≈ 2.57 to 5.14 µM) | < 1
